For one experiment, the system named is activated T cells. To be noted: Busso et al. 2008; cited from earlier work.
The test system of experiment [1] is experimental autoimmune encephalomyelitis (EAE). The conditions noted are these: model of T-cell mediated autoimmune disorders, Bruzzone et al. 2009; cited from earlier work.
Experiment [2] has as its system collagen induced arthritis. The conditions noted are these: Busso et al. 2008; cited from earlier work.
Experiment [3] deals with NAMPT (human, recombinant, C-terminally His-tagged) (Homo sapiens, UniProt P43490). Nature of the experiment: Time-Resolved Fluorescence Resonance Energy Transfer (TR-FRET) Binding Assay of NAMPT. To be noted: without substrates; 6.8 nM NAMPT, 200 nM probe, 3 hours equilibration. Summed up: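 Competitive binding against an Oregon Green 488 tracer (200 nM), 6.8 nM His-tagged enzyme, 1 nM Tb antibody, 2% DMSO, 3 h at RT. IC50 derived from TR-FRET ratios.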

The target of another experiment is NAMPT (Homo sapiens, UniProt P43490). Nature of the experiment: TR-FRET Binding Assay of NAMPT with PRPP. The conditions noted are these: with 200 μM PRPP and 2.5 mM ATP; 2 nM NAMPT, 2 nM probe, 16 hours equilibration. The method, boiled down:
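Read-out is TR-FRET after a 16 h equilibration allowing possible compound modification by the enzyme. Final mix: 2 nM NAMPT, 2 nM probe, 1 nM Tb-anti-His antibody, 200 μM PRPP, 2.5 mM ATP, 2% DMSO.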

The test system of another experiment is PC3 cells. Nature of the experiment: NAMPT Cell Proliferation Assay. The conditions noted are these: Homo sapiens, PC-3, 120 h, 5 days incubation, cell viability by Cell Titer Glo. It counts as cell-based. The method, boiled down: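 Proliferation of PC3 cells treated 5 days with a 10-fold compound series (top 10 μM) was quantified by Cell Titer Glo luminescence; IC50s were fitted from percent inhibition.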

NAMPT, sequence (P43490 whole entry): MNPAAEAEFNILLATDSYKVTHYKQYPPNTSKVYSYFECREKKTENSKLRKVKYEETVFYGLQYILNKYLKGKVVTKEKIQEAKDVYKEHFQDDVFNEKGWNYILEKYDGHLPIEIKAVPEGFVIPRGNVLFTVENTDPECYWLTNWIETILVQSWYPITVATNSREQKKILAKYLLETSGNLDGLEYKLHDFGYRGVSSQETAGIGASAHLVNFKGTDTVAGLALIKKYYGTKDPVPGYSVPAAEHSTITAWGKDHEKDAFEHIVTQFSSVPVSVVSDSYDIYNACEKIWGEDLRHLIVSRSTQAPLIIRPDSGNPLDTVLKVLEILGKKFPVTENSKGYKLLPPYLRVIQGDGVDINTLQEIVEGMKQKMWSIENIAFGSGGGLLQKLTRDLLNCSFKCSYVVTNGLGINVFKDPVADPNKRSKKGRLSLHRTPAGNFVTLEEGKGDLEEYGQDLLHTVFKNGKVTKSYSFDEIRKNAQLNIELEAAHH
NAMPT (human, recombinant, C-terminally His-tagged), sequence (P43490 whole entry): as above

On to `O=C(/C=C/c1cccnc1)NCCCCC1CCN(C(=O)c2ccccc2)CC1` [FK866], for which, in the experiment on activated T cells, the “apoptosis of activated T cells” value is on record as “induce apoptosis” and the “proliferation of activated T cells” value is on record as “selectively block proliferation”. The “manifestations of experimental autoimmune encephalomyelitis” value in experiment [1] is “ameliorated the manifestations”. Also, in experiment [2], the “efficacy in animal models of arthritis” value is on record as “efficacious”.
`CC(C)C(C)C(=O)N1CCC(c2ccc(C(=O)NCc3ccn4ccnc4c3)s2)C1` (stereo not shown) [Example 800, 5-[1-(2,3-dimethylbutanoyl)pyrrolidin-3-yl]-N-(imidazo[1,2-a]pyridin-7-ylmethyl)thiophene-2-carboxamide]: the values for the IC50 (in experiment [3]; on NAMPT; with PC3 cells) were 82.1 nM, 0.925 nM and 6.21 nM, respectively.
The matching figures for `CC(=O)N1CCC(c2ccc(C(=O)NCc3ccn4ccnc4c3)s2)CC1` [Example 258, 5-(1-acetylpiperidin-4-yl)-N-(imidazo[1,2-a]pyridin-7-ylmethyl)thiophene-2-carboxamide]: 113 nM, 0.558 nM and 32.5 nM.
The matching figures for `O=C(NCc1ccn2ccnc2c1)Nc1ccc(O[C@@H]2CCN(C(=O)c3ccc(C(F)(F)F)cc3)C2)cc1` [Example 693, 1-(imidazo[1,2-a]pyridin-7-ylmethyl)-3-[4-({(3R)-1-[4-(trifluoromethyl)benzoyl]pyrrolidin-3-yl}oxy)phenyl]urea]: 781 nM, 1.42 nM and 652 nM.
On the same counts, the results for `O=C(NCc1ccn2ccnc2c1)Nc1ccc(OC2CCN(C(=O)CC3CC3)CC2)cc1` [Example 444, 1-(4-{[1-(cyclopropylacetyl)piperidin-4-yl]oxy}phenyl)-3-(imidazo[1,2-a]pyridin-7-ylmethyl)urea] are 156 nM, 0.244 nM and 69.9 nM.
In the case of `O=C(NCc1ccn2ccnc2c1)c1ccc(C2CCN(C(=O)CC3CCCO3)CC2)cc1` (stereo not shown) [Example 235, N-(imidazo[1,2-a]pyridin-7-ylmethyl)-4-[1-(tetrahydrofuran-2-ylacetyl)piperidin-4-yl]benzamide], the IC50 amounted to 494 nM in experiment [3], 0.369 nM at NAMPT and 55.5 nM in the experiment with PC3 cells.
Consider `CC(C)(C)CC(=O)N1CCC(c2ccc(C(=O)NCc3ccn4ccnc4c3)cc2)C1` (stereo not shown) [Example 602, 4-[1-(3,3-dimethylbutanoyl)pyrrolidin-3-yl]-N-(imidazo[1,2-a]pyridin-7-ylmethyl)benzamide], for which the IC50 in experiment [3] came out at 786 nM; on NAMPT it was 0.887 nM; in the experiment with PC3 cells, 48.6 nM.
Regarding `CCCC(=O)N1CCC(c2ccc(C(=O)NCc3ccn4ccnc4c3)cc2)CC1` [Example 505, 4-(1-butanoylpiperidin-4-yl)-N-(imidazo[1,2-a]pyridin-7-ylmethyl)benzamide], the results for the IC50 (in experiment [3]; at NAMPT; in the experiment with PC3 cells) were 253 nM, 0.355 nM and 30.5 nM, respectively.
On the same counts, the results for `O=C(NCc1ccn2ccnc2c1)Nc1ccc(C2CCN(C(=O)[C@H]3CCCO3)CC2)cc1` [Example 289, 1-(imidazo[1,2-a]pyridin-7-ylmethyl)-3-(4-{1-[(2R)-tetrahydrofuran-2-ylcarbonyl]piperidin-4-yl}phenyl)urea] are 155 nM, 0.286 nM and 9.33 nM.
On the same counts, the results for `CC(C)C[C@H](NC(=O)C1CC1)c1ccc(C(=O)NCc2ccn3ccnc3c2)s1` [Example 687, 5-{(1S)-1-[(cyclopropylcarbonyl)amino]-3-methylbutyl}-N-(imidazo[1,2-a]pyridin-7-ylmethyl)thiophene-2-carboxamide] are 97.3 nM, 1.16 nM and 2.19 nM.
The matching figures for `O=C(NCc1ccc2nccn2c1)c1cnc(N(C[C@H]2CCCO2)C(=O)C2CCOCC2)s1` [Example 147, N-(imidazo[1,2-a]pyridin-6-ylmethyl)-2-{[(2R)-tetrahydrofuran-2-ylmethyl](tetrahydro-2H-pyran-4-ylcarbonyl)amino}-1,3-thiazole-5-carboxamide]: 251 nM, 0.63 nM and 6.69 nM.
Turning to `Cn1cccc1C(=O)N1CCC(c2ccc(C(=O)NCc3ccn4ccnc4c3)s2)C1` (stereo not shown) [Example 771, N-(imidazo[1,2-a]pyridin-7-ylmethyl)-5-{1-[(1-methyl-1H-pyrrol-2-yl)carbonyl]pyrrolidin-3-yl}thiophene-2-carboxamide], the figures for the IC50 (in experiment [3]; at NAMPT; in the experiment on PC3 cells) were 70.8 nM, 0.573 nM and 3.47 nM, respectively.
Take `O=C(NCc1ccn2ccnc2c1)c1ccc(C2=CCN(C(=O)c3ccccc3F)CC2)o1` [Example 803, 5-[1-(2-fluorobenzoyl)-1,2,3,6-tetrahydropyridin-4-yl]-N-(imidazo[1,2-a]pyridin-7-ylmethyl)furan-2-carboxamide]: the IC50 in experiment [3] was 314 nM; at NAMPT it was 1.01 nM; in the experiment on PC3 cells it was 17.6 nM.
On the same counts, the results for `O=C(NCc1ccn2ccnc2c1)c1cnc(N(C[C@H]2CCCO2)C(=O)CCc2ccno2)s1` [Example 194, N-(imidazo[1,2-a]pyridin-7-ylmethyl)-2-{[3-(1,2-oxazol-5-yl)propanoyl][(2R)-tetrahydrofuran-2-ylmethyl]amino}-1,3-thiazole-5-carboxamide] are 32.3 nM, 0.24 nM and 0.773 nM.
On to `O=C(NCc1ccn2ccnc2c1)c1ccc(C2CCN(C(=O)c3ccncc3)C2)s1` (stereo not shown) [Example 773, N-(imidazo[1,2-a]pyridin-7-ylmethyl)-5-[1-(pyridin-4-ylcarbonyl)pyrrolidin-3-yl]thiophene-2-carboxamide], for which the IC50 in experiment [3] was 72.6 nM; on NAMPT, 0.773 nM; with PC3 cells it was 9.53 nM.
On the same counts, the results for `O=C(Nc1ccc(C2CCN(C(=O)C3CCOCC3)CC2)cc1)Nc1ccc2nccn2c1` [Example 109, 1-imidazo[1,2-a]pyridin-6-yl-3-{4-[1-(tetrahydro-2H-pyran-4-ylcarbonyl)piperidin-4-yl]phenyl}urea] are 340 nM, 0.209 nM and 52.2 nM.
On the same counts, the results for `O=C(CC1CCCO1)Nc1ccc(C(=O)NCc2ccn3ccnc3c2)cc1` (stereo not shown) [Example 209, N-(imidazo[1,2-a]pyridin-7-ylmethyl)-4-[(tetrahydrofuran-2-ylacetyl)amino]benzamide] are 811 nM, 0.988 nM and 693 nM.
